Test results published in US9200046B2, “Reporter system for high throughput screening of compounds and uses thereof” (priority 2011, dated 2015).
Structures can show the parent of a compound that is named as a salt. Where two headings read alike, the source gives them in different places.

Biological target: Nrf2-Keap1 complex (Homo sapiens, UniProt Q14145)
Assay: cell-based
Assay type: cell-based
Details: for activation at 16 µM / activation at 32 µM: 3 h; for activation at 16 µM: read-out: Activation 100 nL; for activation at 32 µM: read-out: Activation 200 nL
[1] = Table 2, 100 nL compound, screen run at 16 and 32 μM, 3 hr
[2] = Table 2, 200 nL compound, screen run at 16 and 32 μM, 3 hr

Sequence of Nrf2-Keap1 complex (Q14145 whole entry, one chain of several): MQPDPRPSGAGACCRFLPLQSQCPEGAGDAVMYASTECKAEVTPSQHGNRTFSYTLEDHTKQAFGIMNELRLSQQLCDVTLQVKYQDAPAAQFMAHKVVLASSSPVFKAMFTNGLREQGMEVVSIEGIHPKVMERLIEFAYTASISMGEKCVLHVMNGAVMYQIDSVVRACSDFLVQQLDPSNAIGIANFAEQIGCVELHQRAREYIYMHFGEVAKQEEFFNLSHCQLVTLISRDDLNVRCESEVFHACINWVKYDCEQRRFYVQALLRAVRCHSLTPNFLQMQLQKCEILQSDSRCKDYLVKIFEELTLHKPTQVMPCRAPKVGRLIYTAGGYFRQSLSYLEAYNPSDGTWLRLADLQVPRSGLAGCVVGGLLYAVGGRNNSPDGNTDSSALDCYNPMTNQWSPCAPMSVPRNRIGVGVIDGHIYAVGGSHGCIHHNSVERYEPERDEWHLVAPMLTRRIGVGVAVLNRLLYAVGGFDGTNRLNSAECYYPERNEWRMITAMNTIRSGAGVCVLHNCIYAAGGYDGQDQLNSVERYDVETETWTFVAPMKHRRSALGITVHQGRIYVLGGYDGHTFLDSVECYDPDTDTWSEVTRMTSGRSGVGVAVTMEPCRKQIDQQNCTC

| SMILES | activation at 16 µM [%] | activation at 32 µM [%] | 100 nL (luminescence) [1] | 200 nL (luminescence) [2] | Activation 100 nL [%] | Activation 200 nL [%] | 100 nL (luminescence) | 200 nL (luminescence) | Neh2-luc reporter activation |
| --- | --- | --- | --- | --- | --- | --- | --- | --- | --- |
| CC(C)=CCC[C@@H](C)[C@@H]1CC[C@]2(C)C3=C(CC[C@@]12C)[C@@]1(C)CC[C@H](O)C(C)(C)[C@@H]1CC3 [EUPHOL] | 138 | 74 | 1572 | 2064 |  |  |  |  |  |
| CNC(=O)CSP(=S)(OC)OC [DIMETHOATE] | 59 | 145 | 1148 | 3772 |  |  |  |  |  |
| COc1cc(/C=C/CO)ccc1O [CONIFERYLALCOHOL] | 125 | 79 | 2032 | 2264 |  |  |  |  |  |
| CC1(C)C2CC(=O)O[C@@]3(C)C4=CC(=O)O[C@@H](c5ccoc5)[C@]4(C)CCC3[C@@]2(C)C=C[C@H]1O (some centres unmarked) [DEOXYANDIROBINLACTONE] | 40 | 52 | 964 | 1124 |  |  |  |  |  |
| CC1=C(/C=C/C(C)=C/C=C/C(C)=C\C(=O)O)C(C)(C)CCC1 [ISOTRETINON, reference compound] |  |  | 1068 | 1456 | 34 | 86 |  |  |  |
| CC(=O)Nc1ccc(O)cc1 [ACETAMINOPHEN, reference compound] | 53 | 32 |  |  |  |  | 996 | 1012 | more than 50% |
| O=C1c2cccc(O)c2C(=O)c2c(O)cccc21 [DANTRON, reference compound] | 29 | 29 | 616 | 1020 |  |  |  |  |  |
| CC(=O)Oc1ccc(Cl)c2cccnc12 [CHLOROACETOXYQUINOLINE] | 60 | 37 |  |  |  |  |  |  | 60% |
| COc1cc2nc(N3CCN(C(=O)c4ccco4)CC3)nc(N)c2cc1OC [PRAZOSINHYDROCHLORIDE, reference compound] | 87 | 40 |  |  |  |  |  |  |  |
| CC(C)=CCC1=C(O)C(=O)c2ccccc2C1=O [LAPACHOL] | 47 | 24 |  |  |  |  |  |  |  |
| N.N.[Cl][Pt][Cl] [CISPLATIN, reference compound] |  |  | 1100 | 1496 | 36 | 90 |  |  |  |
| C=C[C@@](C)(O)CCC1C(=C)CCC2[C@@](C)(CO)CCC[C@]12C (stereo partly drawn) [EPI(13)TORULOSOL] |  |  | 724 | 448 | 27 | 0 |  |  |  |
| COc1ccc(/C=C/C(=O)c2ccc(O)cc2O)cc1 [2′,4′-DIHYDROXY-4-METHOXYCHALCONE] | 246 | 121 | 4576 | 2720 |  |  |  |  |  |
| COc1cc(O)c2c(=O)cc(C)oc2c1CC=C(C)C [HETEROPEUCENIN, METHYLETHER] |  |  | 772 | 1020 | 27 | 45 |  |  |  |
| C[C@]12CCC(=O)C=C1CCc1ccc(O)cc12 [12-HYDROXY-4,4-BISNOR-4,8,11,13-PODOCARPATETRAEN-3-ONE] |  |  | 592 | 768 | 26 | 18 |  |  |  |
| CN1CCc2cccc3c2[C@H]1Cc1ccc(O)c(O)c1-3 [APOMORPHINEHYDROCHLORIDE, reference compound] | 44 | -3 | 880 | 266 |  |  |  |  |  |
| COC1=CC(=O)C(C(=O)c2ccccc2)=CC1=O [2-BENZOYL-5-METHOXYBENZOQUINONE] | 72 | 83 | 994 | 2280 |  |  |  |  |  |
| COC(=O)/C=C/C(C)=C\C=C\C(C)=C\C=C\C=C(C)\C=C\C=C(C)\C=C\C(=O)O [BIXIN] | 113 | 113 |  |  |  |  | 1880 | 3036 |  |
